“Also recorded” adds a separate entry of the source.
Key:
[1] = tested on: arachidonic acid (AA) release in SW982 cells; test: TNF-induced arachidonic acid (AA) release in SW982 cells; type: cell-based
Method: (§1) The Cell Culture SW982 model cell line at a confluent or spheroid state (Wada Y, 2005) was used since gene expression and generation of proinflammatory cytokines resemble RA-derived synovial fibroblast-like cells.
(§2) For stimulation experiments 0.5 mL of a cell suspension (5-7×10^5 cells/mL) were seeded inside the inner wells of 48-well plates. The outer wells were filled with 0.5 mL PBS. For nearly confluent populations, cells were incubated for one day (37° C., 5% CO2). In order to yield post-confluent cells, plates were left in the incubator for 3 days. After this incubation time, 300 μL of the supernatant was removed and replaced by 50 μL of stimulation medium.
(§3) Inhibition was performed in a similar manner as the stimulation. After seeding, incubation and replacement of the medium by 200 μL 0.5% FBS in DMEM, 50 μL of the particular inhibitor solution was added (Table 1). After 2 hours at 37° C., 50 μL of the supernatant was removed and replaced by the three stimulants described above.
We evaluted inhibition in SW982 cells by analyzing arachidonic acid (AA) release in response to TNF with or without inhibitor pre-treatment. […] The inhibitory effect of Compound 2 was compared to that of ATK and SB203580 (FIG. 1b).

[2] = tested on: PGE2 production in SW982 cells; test: TNF induced PGE2 production in SW982 cells (EIA/ELISA); type: cell-based; conditions: for Fold change 1 (PGE2) / Fold change 2 (PGE2) / Mean fold change (PGE2): relative to Ctrl
Method: PGE2 production was monitored by ELISA. Those cells receiving treatment underwent reincubation (prior to stimulation) with either Compound 1 (AVX001) or Compound 2 (AVX002) for 2 hours.
FIGS. 3A and 3B show the determination of IC50 values for Compound 1 and Compound 2 inhibition of TNF induced PGE2 production in SW982 cells. […] corresponds to the PGE2 level induced with TNFα in combination with ethanol after incubation for 24 hours.
as §1, §2, §3
Samples and controls were slowly thawed and diluted (between 1:1 and 1:2500) in the standard diluent. The maximal dilution was 1:10 for one step. That is why several intermediate dilutions were prepared. In the beginning all values were determined from duplicates. After having minimized technical errors, samples were only analyzed as individuals. All further steps, except for some minor corrections, were performed according to the manufacturer's recommendations as can be found in the manual of the EIA kit. In order to optimize the results, the incubation time of the alkaline phosphatase substrate was prolonged by 15 minutes. During the incubation, the plates were kept in the dark. An example of the arrangements of the samples and controls is illustrated in the appendix. The read-out was carried out with a Multiscan plate reader (Ascent Labsystems) at wavelengths of 414 and 595 nm after 10 seconds shaking at 120 rpm. The corresponding software to obtain the data was the Ascent software for Multiscan, Version 2.4.1.
SW982 cells were stimulated with TNF for various lengths ranging from 12-48 hours.

[3] = tested on: ESE-1 mRNA expression in SW982 cells; test: TNF-induced ESE-1 mRNA expression in postconfluent SW982 cells; type: cell-based; conditions: 2 hours preincubation, 6 hours 10 ng/ml TNF
Method: The cells were starved in 0% FCS-DMEM overnight before experimental treatment consisting of 2 hours preincubation of inhibitors followed by 6 hours stimulation with 10 ng/ml TNF
As a control, the NF-kB inhibitor BAY-7082 is included.

[4] = tested on: IL-8 expression in SW982 cells; test: Quantitative RT-PCR of IL-8 expression in TNF stimulated SW982 cells; type: cell-based; conditions: TNF 24 hrs
Method: (§4) The expression of COX2, MMP and IL-8, both known to be central in inflammation and/or joint destruction was evaluated by quantiative RT-PCR. SW 982 cells were seeded at a density of 0.1×10^6 cells/well in a 6-well format and then serum-starved after reaching 2-days post confluency. Cells were preincubated with or without inhibitors for 2 hrs prior to treatment in absence or presence of TNF for 24 hrs. The fold-difference in expression of target inflammatory genes relative to an endogenous control (GAPDH) was determined using ΔΔCt method (ΔΔCt=Cttarget−CtGAPDHt)treated−(Cttarget−CtGAPDH)untreated. Mean±SD of 3 separate experiments.

[5] = tested on: COX2 expression in SW982 cells; test: Quantitative RT-PCR of COX2 expression in TNF stimulated SW982 cells; type: cell-based; conditions: TNF 24 hrs
Method: as §4

[6] = tested on: MMP3 expression in SW982 cells; test: Quantitative RT-PCR of MMP expression in TNF stimulated SW982 cells; type: cell-based; conditions: 2 hrs preincubation, TNF 24 hrs
Method: as §4

[7] = tested on: collagen-induced arthritis; test: Mouse model of collagen-induced arthritis (CIA), arthritis index; type: in vivo, male DBA/1 mice; conditions: CIA mice, treatment from Day 28 for 14 days, FIG. 7
Method: CIA was induced in male DBA/1 mice (except naive group) by immunization with 0.1 mL emulsion containing an equal volume of bovine collagen solution (2 mg/mL) and Freund's Complete Adjuvant antigen solution at the tail base. The first injection was given on Day 0 and the second injection as booster was given on Day 21. Treatment was started on Day 28 and continued for 14 days.

[8] = SW982 cells, 2 hrs preincubation, n = 3
[9] = relative to GAPDH, ΔΔCt, n = 3, mean +/- SD

`CC/C=C\C/C=C\C/C=C\C/C=C\C/C=C\CCSCC(=O)C(F)(F)F` [Compound 2] was tested, and the IC50 ([1]; TNF 10 ng/ml, inhibitor pre-treatment, read-out: IC50 for reduction of TNF-induced release of AA) was ~1000 nM, the “Effect on AA release” value ([1]; TNF-induced) was “normalizes AA-release to basal level” and the “% Inhibition (PGE2)” value ([2]; 5 uM inhibitor + TNF) was 107.3%. For the same compound, the “Mean PGE2” value ([2]; 5 uM inhibitor + TNF) was 87.5, the “Fold change 1 (PGE2)” value ([2]; 5 uM inhibitor + TNF) was 0.64 and the “Fold change 2 (PGE2)” value ([2]; 5 uM inhibitor + TNF) was 0.30. The “Mean fold change (PGE2)” value ([2]; 5 uM inhibitor + TNF) was 0.47, the “% Inhibition (PGE2)” value ([2]; 10 uM inhibitor + TNF) was 103.7% and the “Mean PGE2” value ([2]; 10 uM inhibitor + TNF) was 147.5. The “Fold change 1 (PGE2)” value ([2]; 10 uM inhibitor + TNF) was 1.34, the “Fold change 2 (PGE2)” value ([2]; 10 uM inhibitor + TNF) was 0.38 and the “Mean fold change (PGE2)” value ([2]; 10 uM inhibitor + TNF) was 0.86. The “Effect on PGE2 production in response to TNF stimulation” value (“Effect on PGE2 production in response” for short) ([2]; SW982 cells) was “reduced PGE2 production to basal levels”, the IC50 ([2]; SW982 cells, FIG. 3, read-out: IC50 for inhibition of TNF induced PGE2 production) was ~430 nM and the “Regulation of TNF-induced ESE-1 expression” value [3] was “in a dose dependent manner; also recorded: similar, if not better, regulation of ESE-1 expression than the known NF-kB inhibitor BAY-7082”. For the same compound, the “% Inhibition of induction of IL-8 message” value [4, 8] was 53.49%, the “Average fold induction of IL-8 transcript, Compound 2/TNF” value [4, 9] was 39.21 +/− 10.76 and the “% Inhibition of induction of COX2 message” value [5, 8] was 42.22%. The “Average fold induction of COX2 transcript, Compound 2/TNF” value [5, 9] was 5.40 +/− 4.32, the “% Inhibition of induction of MMP3 message” value [6] was ~58% and the “Reduction of arthritis index (AI)” value [7] was “More Effective than ENBREL® (Etanercept) in Reducing an Arthritis Index”.
In the case of `CCCCC/C=C\C/C=C\C/C=C\C/C=C\CCCC(=O)C(F)(F)F` [ATK, reference compound], the “Effect on PGE2 production in response” value ([2]; SW982 cells) is reported as “reduced PGE2 production to basal levels”.
`C[S+]([O-])c1ccc(-c2nc(-c3ccncc3)c(-c3ccc(F)cc3)[nH]2)cc1` (centres unmarked) [SB203580, reference compound] was tested, and the “Mean PGE2” value ([2]; 10 uM inhibitor + TNF) was 25.6, the “Fold change 1 (PGE2)” value ([2]; 10 uM inhibitor + TNF) was 0.18 and the “Fold change 2 (PGE2)” value ([2]; 10 uM inhibitor + TNF) was 0.09. For the same compound, the “Mean fold change (PGE2)” value ([2]; 10 uM inhibitor + TNF) was 0.14, the inhibition at 10 µM ([2]; Homo sapiens, SW982, 10 uM inhibitor + TNF) was 111% and the “Effect on PGE2 production in response” value ([2]; SW982 cells) was “depleted PGE2 levels to below basal release”.
In the case of `COc1ccc2c(c1)c(CC(=O)O)c(C)n2C(=O)c1ccc(Cl)cc1` [indomethasin, reference compound], the “Regulation of TNF-induced ESE-1 expression” value [3] is reported as “poorer regulation of TNF induced ESE-1 expression than the control”.

— patent US9682930B2, “Rheumatoid arthritis treatment” (Avexxin AS, priority 2011, dated 2017)
